From PubChem BioAssay (NCI)
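Where inhibition never reached the appropriate level, the endpoint shown equals the highest concentration tested. Otherwise, values were interpolated linearly from a five-concentration, 48-hour dose response in 96-well plates. The concentration for 50% growth inhibition is given as GI50. TGI is the concentration that stops growth completely.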

Columns and labels:
Test in all cases: NCI-60 cell line screen, 48 h
SW-620 colon = test system: SW-620 colon
COLO 205 colon = test system: COLO 205 colon
NCI-H522 lung = test system: NCI-H522 lung
SK-MEL-28 melanoma = test system: SK-MEL-28 melanoma
SR leukemia = test system: SR leukemia
HL-60(TB) leukemia = test system: HL-60(TB) leukemia
A498 renal = test system: A498 renal
HT29 colon = test system: HT29 colon
LOX IMVI melanoma = test system: LOX IMVI melanoma
NCI-H23 lung = test system: NCI-H23 lung
MDA-MB-231 breast = test system: MDA-MB-231 breast
NCI/ADR-RES ovarian = test system: NCI/ADR-RES ovarian
ACHN renal = test system: ACHN renal
OVCAR-8 ovarian = test system: OVCAR-8 ovarian
RXF 393 renal = test system: RXF 393 renal
TK-10 renal = test system: TK-10 renal
MOLT-4 leukemia = test system: MOLT-4 leukemia
SN12C renal = test system: SN12C renal
EKVX NSCLC = test system: EKVX NSCLC
SF-539 CNS = test system: SF-539 CNS
NCI-H226 lung = test system: NCI-H226 lung
HS 578T breast = test system: HS 578T breast
SK-MEL-2 melanoma = test system: SK-MEL-2 melanoma
SF-295 CNS = test system: SF-295 CNS
NCI-H460 lung = test system: NCI-H460 lung
U251 CNS = test system: U251 CNS
K-562 leukemia = test system: K-562 leukemia
OVCAR-4 ovarian = test system: OVCAR-4 ovarian
A549 NSCLC = test system: A549 NSCLC
UACC-257 melanoma = test system: UACC-257 melanoma
CCRF-CEM leukemia = test system: CCRF-CEM leukemia
SF-268 CNS = test system: SF-268 CNS
MDA-MB-435 = test system: MDA-MB-435
UO-31 renal = test system: UO-31 renal
DU-145 prostate = test system: DU-145 prostate
MCF7 breast = test system: MCF7 breast
IGROV1 ovarian = test system: IGROV1 ovarian
HCT-116 colon = test system: HCT-116 colon
HCT-15 colon = test system: HCT-15 colon
786-0 renal = test system: 786-0 renal
T-47D breast = test system: T-47D breast
M14 melanoma = test system: M14 melanoma
OVCAR-5 ovarian = test system: OVCAR-5 ovarian
RPMI-8226 leukemia = test system: RPMI-8226 leukemia
MALME-3M melanoma = test system: MALME-3M melanoma
UACC-62 melanoma = test system: UACC-62 melanoma
BT-549 breast = test system: BT-549 breast
OVCAR-3 ovarian = test system: OVCAR-3 ovarian
HOP-62 NSCLC = test system: HOP-62 NSCLC
KM12 colon = test system: KM12 colon
HOP-92 NSCLC = test system: HOP-92 NSCLC
CAKI-1 renal = test system: CAKI-1 renal
SK-MEL-5 melanoma = test system: SK-MEL-5 melanoma
SNB-19 CNS = test system: SNB-19 CNS
SK-OV-3 ovarian = test system: SK-OV-3 ovarian
PC-3 prostate = test system: PC-3 prostate
HCC-2998 colon = test system: HCC-2998 colon
SNB-75 CNS = test system: SNB-75 CNS

`CC1=CCC(C)=Nc2nc3ccccc3n21` was tested, and the TGI (SW-620 colon) was > 100 µM, the TGI (COLO 205 colon) was > 100 µM and the TGI (NCI-H522 lung) was > 100 µM. For the same compound, the TGI (SK-MEL-28 melanoma) was > 100 µM, the TGI (SR leukemia) was > 100 µM and the TGI (HL-60(TB) leukemia) was > 100 µM. The TGI (A498 renal) was > 100 µM, the TGI (HT29 colon) was > 100 µM and the TGI (LOX IMVI melanoma) was > 100 µM. For the same compound, the TGI (NCI-H23 lung) was > 100 µM, the TGI (MDA-MB-231 breast) was > 100 µM and the TGI (NCI/ADR-RES ovarian) was > 100 µM. For the same compound, the TGI (ACHN renal) was > 100 µM, the TGI (OVCAR-8 ovarian) was > 100 µM and the TGI (RXF 393 renal) was > 100 µM. For the same compound, the TGI (TK-10 renal) was > 100 µM, the TGI (MOLT-4 leukemia) was > 100 µM and the TGI (SN12C renal) was > 100 µM. For the same compound, the TGI (EKVX NSCLC) was > 100 µM, the TGI (SF-539 CNS) was > 100 µM and the TGI (NCI-H226 lung) was > 100 µM. The TGI (HS 578T breast) was > 100 µM, the TGI (SK-MEL-2 melanoma) was > 100 µM and the TGI (SF-295 CNS) was > 100 µM. The TGI (NCI-H460 lung) was > 100 µM, the TGI (U251 CNS) was > 100 µM and the TGI (K-562 leukemia) was > 100 µM. The TGI (OVCAR-4 ovarian) was > 100 µM, the TGI (A549 NSCLC) was > 100 µM and the TGI (UACC-257 melanoma) was > 100 µM. For the same compound, the TGI (CCRF-CEM leukemia) was > 100 µM, the TGI (SF-268 CNS) was > 100 µM and the TGI (MDA-MB-435) was > 100 µM. The TGI (UO-31 renal) was 58.9 µM, the TGI (DU-145 prostate) was > 100 µM and the TGI (MCF7 breast) was > 100 µM. The TGI (IGROV1 ovarian) was > 100 µM, the TGI (HCT-116 colon) was > 100 µM and the TGI (HCT-15 colon) was > 100 µM. For the same compound, the TGI (786-0 renal) was > 100 µM, the TGI (T-47D breast) was > 100 µM and the TGI (M14 melanoma) was > 100 µM. For the same compound, the TGI (OVCAR-5 ovarian) was > 100 µM, the TGI (RPMI-8226 leukemia) was > 100 µM and the TGI (MALME-3M melanoma) was > 100 µM. For the same compound, the TGI (UACC-62 melanoma) was > 100 µM, the TGI (BT-549 breast) was > 100 µM and the TGI (OVCAR-3 ovarian) was > 100 µM. For the same compound, the TGI (HOP-62 NSCLC) was > 100 µM, the TGI (KM12 colon) was > 100 µM and the TGI (HOP-92 NSCLC) was > 100 µM. The TGI (CAKI-1 renal) was > 100 µM, the TGI (SK-MEL-5 melanoma) was > 100 µM and the TGI (SNB-19 CNS) was > 100 µM. For the same compound, the TGI (SK-OV-3 ovarian) was > 100 µM and the TGI (PC-3 prostate) was > 100 µM.
`CCN(Cc1ccccc1C)c1ccc(CO)c(Cl)c1` gave a GI50 (SW-620 colon) of 3.74 µM, a TGI (SW-620 colon) of 18.5 µM and a GI50 (COLO 205 colon) of 13.3 µM. It also gave a TGI (COLO 205 colon) of 28.2 µM, a GI50 (NCI-H522 lung) of 13.4 µM and a TGI (NCI-H522 lung) of 28.8 µM. It also gave a GI50 (SK-MEL-28 melanoma) of 13.2 µM, a TGI (SK-MEL-28 melanoma) of 27.8 µM and a GI50 (SR leukemia) of 9.29 µM. It also gave a TGI (SR leukemia) of 32.6 µM, a GI50 (HL-60(TB) leukemia) of 11.3 µM and a TGI (HL-60(TB) leukemia) of 34.4 µM. The GI50 (A498 renal) was 0.0283 µM, the TGI (A498 renal) was 0.114 µM and the GI50 (HT29 colon) was 9.97 µM. It also gave a TGI (HT29 colon) of 26.3 µM, a GI50 (LOX IMVI melanoma) of 17.6 µM and a TGI (LOX IMVI melanoma) of 33 µM. It also gave a GI50 (NCI-H23 lung) of 12.8 µM, a TGI (NCI-H23 lung) of 38 µM and a GI50 (MDA-MB-231 breast) of 13.7 µM. It also gave a TGI (MDA-MB-231 breast) of 32 µM, a GI50 (NCI/ADR-RES ovarian) of 14.5 µM and a TGI (NCI/ADR-RES ovarian) of 43.8 µM. For the same compound, the GI50 (ACHN renal) was 15.7 µM, the TGI (ACHN renal) was 39.4 µM and the GI50 (OVCAR-8 ovarian) was 15.8 µM. It also gave a TGI (OVCAR-8 ovarian) of 48.9 µM, a GI50 (RXF 393 renal) of 6.3 µM and a TGI (RXF 393 renal) of 23.8 µM. It also gave a GI50 (TK-10 renal) of 0.0944 µM, a TGI (TK-10 renal) of 0.863 µM and a GI50 (MOLT-4 leukemia) of 15.8 µM. It also gave a TGI (MOLT-4 leukemia) of 39.2 µM, a GI50 (SN12C renal) of 12.5 µM and a TGI (SN12C renal) of 25.9 µM. It also gave a GI50 (HCC-2998 colon) of 14.4 µM, a TGI (HCC-2998 colon) of 30.6 µM and a GI50 (SF-539 CNS) of 15 µM. The TGI (SF-539 CNS) was 29.5 µM, the GI50 (NCI-H226 lung) was 0.0375 µM and the TGI (NCI-H226 lung) was 0.201 µM. It also gave a GI50 (HS 578T breast) of 16 µM, a TGI (HS 578T breast) of 42.3 µM and a GI50 (SK-MEL-2 melanoma) of 4.47 µM. The TGI (SK-MEL-2 melanoma) was 18.1 µM, the GI50 (SF-295 CNS) was 4.15 µM and the TGI (SF-295 CNS) was 16.9 µM. The GI50 (NCI-H460 lung) was 0.821 µM, the TGI (NCI-H460 lung) was 12.7 µM and the GI50 (U251 CNS) was 2.84 µM. It also gave a TGI (U251 CNS) of 17.1 µM, a GI50 (K-562 leukemia) of 3.1 µM and a TGI (K-562 leukemia) of 13.8 µM. For the same compound, the GI50 (OVCAR-4 ovarian) was 1.26 µM, the TGI (OVCAR-4 ovarian) was 11.8 µM and the GI50 (A549 NSCLC) was 6.63 µM. The TGI (A549 NSCLC) was 27.9 µM, the GI50 (UACC-257 melanoma) was 0.278 µM and the TGI (UACC-257 melanoma) was 1.67 µM. It also gave a GI50 (CCRF-CEM leukemia) of 15.5 µM, a TGI (CCRF-CEM leukemia) of 38.2 µM and a GI50 (SF-268 CNS) of 16.1 µM. It also gave a TGI (SF-268 CNS) of 31.8 µM, a GI50 (MDA-MB-435) of 3.67 µM and a TGI (MDA-MB-435) of 15.4 µM. It also gave a GI50 (UO-31 renal) of 12.9 µM, a TGI (UO-31 renal) of 32.9 µM and a GI50 (DU-145 prostate) of 16.5 µM. It also gave a TGI (DU-145 prostate) of 35.4 µM, a GI50 (MCF7 breast) of 2 µM and a TGI (MCF7 breast) of 14.7 µM. The TGI (IGROV1 ovarian) was 0.747 µM, the GI50 (HCT-116 colon) was 0.445 µM and the TGI (HCT-116 colon) was 11.6 µM. The GI50 (HCT-15 colon) was 8.57 µM, the TGI (HCT-15 colon) was 29.3 µM and the GI50 (786-0 renal) was 15 µM. It also gave a TGI (786-0 renal) of 30.9 µM, a GI50 (T-47D breast) of 0.244 µM and a TGI (T-47D breast) of 2.19 µM. The GI50 (M14 melanoma) was 15.3 µM, the TGI (M14 melanoma) was 31.2 µM and the GI50 (OVCAR-5 ovarian) was 0.391 µM. The TGI (OVCAR-5 ovarian) was 1.74 µM, the GI50 (SNB-75 CNS) was 9.62 µM and the TGI (SNB-75 CNS) was 25 µM. It also gave a GI50 (RPMI-8226 leukemia) of 4.04 µM, a TGI (RPMI-8226 leukemia) of 23.5 µM and a GI50 (MALME-3M melanoma) of 15.6 µM. It also gave a TGI (MALME-3M melanoma) of 32 µM, a GI50 (UACC-62 melanoma) of 0.423 µM and a TGI (UACC-62 melanoma) of 6.27 µM. It also gave a GI50 (BT-549 breast) of 15.8 µM, a TGI (BT-549 breast) of 30.1 µM and a GI50 (OVCAR-3 ovarian) of 2.13 µM. The TGI (OVCAR-3 ovarian) was 9.79 µM, the GI50 (HOP-62 NSCLC) was 6.39 µM and the TGI (HOP-62 NSCLC) was 23.7 µM. For the same compound, the GI50 (KM12 colon) was 11.8 µM, the TGI (KM12 colon) was 26.6 µM and the GI50 (HOP-92 NSCLC) was 1.83 µM. For the same compound, the TGI (HOP-92 NSCLC) was 9.14 µM, the GI50 (CAKI-1 renal) was 7.88 µM and the TGI (CAKI-1 renal) was 32 µM. The GI50 (SK-MEL-5 melanoma) was 4.77 µM, the TGI (SK-MEL-5 melanoma) was 11.9 µM and the GI50 (SNB-19 CNS) was 17.8 µM. It also gave a TGI (SNB-19 CNS) of 52.8 µM, a GI50 (SK-OV-3 ovarian) of 13.7 µM and a TGI (SK-OV-3 ovarian) of 31.5 µM. For the same compound, the GI50 (PC-3 prostate) was 12.1 µM and the TGI (PC-3 prostate) was 25.4 µM.
